Test results published in the supplement of paper PMC10307832.

Key:
Experiment in all cases: relative viability (nuclei count vs DMSO), 5 days (fraction); higher = more cells survive
[1] = compound: CN1C=C(C2=CC=CC=C21)/C=C\3/C4=C(C=CC=N4)NC3=O + Cc1cc(Nc2cc(N3CCN(C)CC3)nc(Sc3ccc(NC(=O)C4CC4)cc3)n2)n[nH]1 [Tozasertib] (partner 0.1 µM)
How it was run: (§1)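 Nuclei were stained with Hoechst during a one-step fixation (final 0.05% Triton X-100, 1% formaldehyde, 1 ug/ml Hoechst) carried out 5 days after dosing, then counted on 4× images. The cells, lung cancer lines in 1536-well plates, had been dosed by pin tool the day after seeding with one drug alone or a fixed anchor-drug dose plus five library-drug doses (not always all listed) in √10 steps. Relative viability is the nuclei count in treated wells divided by that in vehicle wells, and each value is the median of duplicate plates.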

[2] = compound: CC(=O)Nc1cccc(-n2c(=O)n(C3CC3)c(=O)c3c(Nc4ccc(I)cc4F)n(C)c(=O)c(C)c32)c1 [Trametinib] + CC1(C)CCC(c2ccc(Cl)cc2)=C(CN2CCN(c3ccc(C(=O)NS(=O)(=O)c4ccc(N[C@H](CCN5CCOCC5)CSc5ccccc5)c(S(=O)(=O)C(F)(F)F)c4)cc3)CC2)C1 [Navitoclax] (partner 0.5 µM)
How it was run: as §1

[3] = compound: CC(=O)Nc1cccc(-n2c(=O)n(C3CC3)c(=O)c3c(Nc4ccc(I)cc4F)n(C)c(=O)c(C)c32)c1 [Trametinib] + COc1cc2c(Oc3ccc(NC(=O)C4(C(=O)Nc5ccc(F)cc5)CC4)cc3F)ccnc2cc1OCCCN1CCOCC1 [Foretinib] (partner 0.25 µM)
How it was run: as §1

[4] = compound: CN1C=C(C2=CC=CC=C21)/C=C\3/C4=C(C=CC=N4)NC3=O + Cc1nc(NC(=O)N2CCC[C@H]2C(N)=O)sc1-c1ccnc(C(C)(C)C(F)(F)F)c1 [Alpelisib] (partner 2 µM)
How it was run: as §1

Row | Cell Line | relative viability ([1]; first compound 0.02 µM) | relative viability ([1]; first compound 0.06325 µM) | relative viability ([1]; first compound 0.2 µM) | relative viability ([1]; first compound 0.6325 µM) | relative viability ([1]; first compound 2 µM) | relative viability ([2]; first compound 0.0025 µM) | relative viability ([2]; first compound 0.007906 µM) | relative viability ([2]; first compound 0.025 µM) | relative viability ([2]; first compound 0.07906 µM) | relative viability ([2]; first compound 0.25 µM) | relative viability ([3]; first compound 0.0025 µM) | relative viability ([3]; first compound 0.007906 µM) | relative viability ([3]; first compound 0.025 µM) | relative viability ([3]; first compound 0.07906 µM) | relative viability ([3]; first compound 0.25 µM) | relative viability ([4]; first compound 0.02 µM) | relative viability ([4]; first compound 0.06325 µM) | relative viability ([4]; first compound 0.2 µM) | relative viability ([4]; first compound 0.6325 µM) | relative viability ([4]; first compound 2 µM)
1 | NCI-H520 | 0.396 | 0.47 | 0.501 | 0.436 | 0.415 | 1.11 | 1.15 | 1.04 | 1.01 | 0.77 | 0.874 | 0.785 | 0.866 | 0.739 | 0.585 | 0.796 | 0.69 | 0.859 | 1.02 | 1.04
2 | NCI-H838 | 0.264 | 0.223 | 0.259 | 0.294 | 0.257 | 1.05 | 0.973 |  | 1.01 | 0.718 | 0.921 | 0.889 | 0.795 | 0.797 | 0.638 | 0.603 | 0.859 | 0.792 | 0.901 | 0.937
3 | LK-2 |  |  |  | 0.164 | 0.152 | 0.745 | 0.897 | 0.767 | 0.946 | 0.368 | 1.07 | 1.19 | 1.11 | 1.2 | 0.859 |  | 0.766 | 0.76 | 0.943 | 0.61
4 | HCC-827 | 0.378 | 0.405 |  | 0.53 | 0.395 | 1.06 | 0.971 | 1.03 | 0.946 | 0.676 | 1.01 | 0.95 | 0.787 | 0.556 | 0.425 | 0.969 | 0.992 |  | 0.978 | 0.984
5 | SW 1573 | 0.161 | 0.209 | 0.19 | 0.156 | 0.193 | 0.723 | 0.885 | 0.609 | 0.546 | 0.404 | 0.876 | 0.723 | 0.616 | 0.513 | 0.152 | 0.742 | 0.644 | 0.782 | 0.803 | 0.814
6 | NCI-H2023 | 0.282 | 0.267 | 0.352 | 0.249 | 0.237 | 0.864 | 0.825 | 0.877 | 0.549 | 0.33 | 0.795 | 0.472 | 0.497 | 0.35 | 0.302 | 0.649 | 0.594 | 0.542 | 0.516 | 0.53
7 | EPLC-272H | 0.193 | 0.276 | 0.244 |  | 0.283 | 0.962 | 0.914 | 0.455 | 0.709 | 0.359 | 0.476 | 0.384 | 0.26 | 0.237 | 0.14 | 1.14 | 0.752 |  | 0.83 | 0.835
8 | SK-LU-1 | 0.23 | 0.244 | 0.316 | 0.287 | 0.316 | 0.971 | 0.929 | 0.65 | 0.337 | 0.296 | 0.649 | 0.697 | 0.505 | 0.406 | 0.208 | 0.879 | 0.671 | 0.956 | 0.94 | 1.17
9 | NCI-H1395 | 0.703 | 0.72 | 0.681 | 0.721 | 0.821 | 1.17 | 1.01 | 1.27 | 1.14 | 0.685 | 0.993 | 0.914 | 0.852 | 0.919 | 0.708 | 1.11 | 1.08 |  | 1.3 | 0.928
10 | NCI-H2085 | 0.803 | 0.734 | 0.797 | 0.622 | 0.575 | 1.07 | 0.9 | 0.924 | 0.878 | 0.81 | 0.695 | 0.732 | 0.625 | 0.587 | 0.626 | 0.967 | 0.849 | 1.01 | 0.852 | 0.949
11 | NCI-H2087 | 0.227 | 0.245 | 0.249 | 0.189 | 0.212 | 0.718 | 0.406 | 0.244 | 0.223 | 0.257 | 0.803 | 0.488 | 0.343 | 0.211 | 0.205 | 1.16 | 1.21 | 1.17 | 1.05 | 1.22
12 | NCI-H322M | 0.46 | 0.5 | 0.485 | 0.507 | 0.639 | 1.15 | 0.97 | 1.01 | 0.827 | 0.687 | 0.813 | 0.769 | 0.677 | 0.59 | 0.498 | 0.839 | 0.725 | 0.773 | 0.753 | 0.708
13 | NCI-H1734 | 0.281 | 0.311 |  | 0.295 | 0.284 | 0.865 | 0.736 |  | 0.657 | 0.474 | 0.968 | 0.781 | 0.582 | 0.607 | 0.446 | 0.706 | 0.663 |  | 0.675 | 0.662
14 | NCI-H2228 | 0.15 | 0.223 |  |  | 0.192 | 0.782 | 0.803 | 0.706 | 0.626 | 0.548 | 0.911 | 0.761 | 0.811 | 0.571 | 0.4 | 0.718 | 0.645 |  | 0.919 | 0.674
15 | EKVX | 0.297 | 0.422 | 0.402 | 0.355 | 0.38 | 0.728 | 0.627 | 0.37 | 0.376 | 0.371 | 0.809 | 0.724 | 0.332 | 0.379 | 0.838 | 0.765 | 0.763 | 0.795 | 0.725 | 0.703
16 | NCI-H596 | 0.981 | 0.878 | 0.745 | 0.7 | 0.918 | 0.893 | 0.624 | 0.525 | 0.498 | 0.363 | 0.793 | 0.596 | 0.709 | 0.69 | 0.396 | 0.545 | 0.413 | 0.529 | 0.49 | 0.493
17 | NCI-H1975 | 0.688 | 0.753 | 0.641 | 0.42 | 0.245 | 0.999 | 1 | 0.713 | 0.466 | 0.395 | 0.973 | 0.87 | 0.839 | 0.334 | 0.385 | 0.603 | 0.718 | 0.536 | 0.625 | 0.498
18 | NCI-H2170 | 0.549 | 0.721 | 0.737 | 0.79 | 0.72 | 0.636 | 0.521 |  | 0.425 | 0.448 | 0.973 | 0.539 | 0.968 | 0.963 | 0.87 |  | 0.794 | 0.757 | 0.617 | 0.649
19 | NCI-H1666 | 0.596 | 0.546 | 0.61 | 0.609 | 0.603 | 0.613 | 0.64 | 0.375 | 0.456 | 0.393 | 0.892 | 0.758 | 0.709 | 0.685 | 0.59 | 0.94 | 0.814 | 0.805 | 0.915 | 0.616
20 | PC-3 [JPC-3] | 0.863 | 0.897 | 0.92 | 0.746 | 0.913 | 0.815 | 0.793 | 0.709 | 0.705 | 0.455 | 1 | 0.969 | 0.87 | 0.709 | 0.574 | 1.02 | 0.99 | 1.03 | 1.03 | 0.989
21 | NCI-H1755 | 0.56 | 0.557 | 0.605 | 0.502 | 0.509 | 0.958 | 0.952 | 0.901 | 0.918 | 0.838 | 0.856 | 0.863 | 0.82 | 0.809 | 0.787 | 0.872 | 0.922 | 0.944 | 0.836 | 0.858
22 | RERF-LC-KJ | 0.428 | 0.407 | 0.621 | 0.558 | 0.512 | 0.948 | 1.09 | 0.968 | 0.966 | 0.717 | 0.948 | 0.851 | 0.699 | 0.827 | 0.778 | 0.904 | 0.848 | 0.748 | 0.811 | 0.736
23 | NCI-H647 | 0.327 | 0.345 | 0.206 | 0.321 | 0.215 | 1.01 | 1.07 | 0.834 | 0.55 | 0.267 | 1.35 | 1.08 | 0.963 | 0.911 | 0.4 | 0.977 | 0.948 | 0.904 | 0.951 | 1.14
24 | BEN | 0.475 | 0.445 | 0.443 | 0.634 | 0.761 | 0.0591 | 0.054 |  | 0.0541 | 0.179 | 0.757 | 0.727 | 0.302 | 0.408 | 0.499 | 1.05 | 0.932 | 0.981 | 1 | 1.13
25 | 201T | 1 | 0.96 | 0.947 | 0.897 | 0.781 | 1.17 | 1.1 | 1.13 | 1.08 | 1.09 | 1.05 | 1 | 1.02 | 0.815 | 0.715 | 0.998 | 1.04 | 1.08 | 1 | 0.913
26 | LC-2-ad | 0.43 | 0.435 | 0.482 | 0.453 | 0.492 | 0.35 | 0.306 | 0.34 | 0.285 | 0.173 | 0.792 | 0.726 | 0.57 | 0.477 | 0.409 | 0.93 | 0.891 | 0.859 | 0.892 | 0.891
27 | LCLC-97TM1 | 0.132 | 0.196 | 0.181 | 0.332 | 0.252 | 0.427 | 0.451 | 0.216 | 0.207 | 0.122 | 0.817 | 0.666 | 0.459 | 0.306 | 0.301 | 0.205 |  |  | 0.208 | 0.202
